Laboratory results taken from patent US8012504B2 (priority 2000, dated 2011).
Counter-ions that a name gives are not always drawn.

What was measured:
[1] = in vivo; cited from earlier work
[2] = Example 16: interaction potential, Mucinex and Sudafed 12 Hour alone or together, 3-way crossover; type: in vivo, human
Text: In another study drug interaction potential for combination drugs was examined.

[3] = clinical; settings: human, in vivo, 1200 mg

CN[C@@H](C)[C@@H](O)c1ccccc1 [Pseudoephedrine, Pseudoephedrine hydrochloride]
mean elimination half-life [1]: 4 to 6 h
AUC(0-t) ([2]; human, in vivo, po, 120 mg, Pseudoephedrine AUC0-t, mean, Treatment B: 120 mg pseudoephedrine HCl alone (Sudafed 12 Hour), overnight fast): 4020 ng·h/mL
AUC(0-t) ([2]; human, in vivo, po, 120 mg, Pseudoephedrine AUC0-t, mean, Treatment C: 120 mg pseudoephedrine HCl along with 1200 mg guaifenesin (Sudafed 12 Hour + Mucinex), overnight fast): 3920 ng·h/mL
AUC(0-t) ([2]; human, in vivo, po, 120 mg, Pseudoephedrine AUC0-t, median, Treatment B: 120 mg pseudoephedrine HCl alone (Sudafed 12 Hour), overnight fast): 3820 ng·h/mL
AUC(0-t) ([2]; human, in vivo, po, 120 mg, Pseudoephedrine AUC0-t, median, Treatment C: 120 mg pseudoephedrine HCl along with 1200 mg guaifenesin (Sudafed 12 Hour + Mucinex), overnight fast): 3930 ng·h/mL
AUC(0-inf) ([2]; human, in vivo, po, 120 mg, Pseudoephedrine AUCinf, mean, Treatment B: 120 mg pseudoephedrine HCl alone (Sudafed 12 Hour), overnight fast): 4500 ng·h/mL
AUC(0-inf) ([2]; human, in vivo, po, 120 mg, Pseudoephedrine AUCinf, mean, Treatment C: 120 mg pseudoephedrine HCl along with 1200 mg guaifenesin (Sudafed 12 Hour + Mucinex), overnight fast): 4400 ng·h/mL
AUC(0-inf) ([2]; human, in vivo, po, 120 mg, Pseudoephedrine AUCinf, median, Treatment B: 120 mg pseudoephedrine HCl alone (Sudafed 12 Hour), overnight fast): 4430 ng·h/mL
AUC(0-inf) ([2]; human, in vivo, po, 120 mg, Pseudoephedrine AUCinf, median, Treatment C: 120 mg pseudoephedrine HCl along with 1200 mg guaifenesin (Sudafed 12 Hour + Mucinex), overnight fast): 4250 ng·h/mL
Cmax ([2]; human, in vivo, po, 120 mg, Pseudoephedrine Cmax, mean, Treatment B: 120 mg pseudoephedrine HCl alone (Sudafed 12 Hour), overnight fast): 296 ng/mL
Cmax ([2]; human, in vivo, po, 120 mg, Pseudoephedrine Cmax, mean, Treatment C: 120 mg pseudoephedrine HCl along with 1200 mg guaifenesin (Sudafed 12 Hour + Mucinex), overnight fast): 289 ng/mL
Cmax ([2]; human, in vivo, po, 120 mg, Pseudoephedrine Cmax, median, Treatment B: 120 mg pseudoephedrine HCl alone (Sudafed 12 Hour), overnight fast): 298 ng/mL
Cmax ([2]; human, in vivo, po, 120 mg, Pseudoephedrine Cmax, median, Treatment C: 120 mg pseudoephedrine HCl along with 1200 mg guaifenesin (Sudafed 12 Hour + Mucinex), overnight fast): 286 ng/mL
half-life ([2]; human, in vivo, po, 120 mg, Pseudoephedrine Half-life, mean, Treatment B: 120 mg pseudoephedrine HCl alone (Sudafed 12 Hour), overnight fast): 6.05 h
half-life ([2]; human, in vivo, po, 120 mg, Pseudoephedrine Half-life, mean, Treatment C: 120 mg pseudoephedrine HCl along with 1200 mg guaifenesin (Sudafed 12 Hour + Mucinex), overnight fast): 6.04 h
half-life ([2]; human, in vivo, po, 120 mg, Pseudoephedrine Half-life, median, Treatment B: 120 mg pseudoephedrine HCl alone (Sudafed 12 Hour), overnight fast): 5.81 h
half-life ([2]; human, in vivo, po, 120 mg, Pseudoephedrine Half-life, median, Treatment C: 120 mg pseudoephedrine HCl along with 1200 mg guaifenesin (Sudafed 12 Hour + Mucinex), overnight fast): 5.63 h
Tmax ([2]; human, in vivo, po, 120 mg, Pseudoephedrine Tmax, mean, Treatment B: 120 mg pseudoephedrine HCl alone (Sudafed 12 Hour), overnight fast): 6.17 h
Tmax ([2]; human, in vivo, po, 120 mg, Pseudoephedrine Tmax, mean, Treatment C: 120 mg pseudoephedrine HCl along with 1200 mg guaifenesin (Sudafed 12 Hour + Mucinex), overnight fast): 5.75 h
Tmax ([2]; human, in vivo, po, 120 mg, Pseudoephedrine Tmax, median, Treatment B: 120 mg pseudoephedrine HCl alone (Sudafed 12 Hour), overnight fast): 6 h
Tmax ([2]; human, in vivo, po, 120 mg, Pseudoephedrine Tmax, median, Treatment C: 120 mg pseudoephedrine HCl along with 1200 mg guaifenesin (Sudafed 12 Hour + Mucinex), overnight fast): 6 h
Pseudoephedrine Clearance ([2]; mean, Treatment B: 120 mg pseudoephedrine HCl alone (Sudafed 12 Hour), overnight fast): 23.66 L/h
Pseudoephedrine Clearance ([2]; mean, Treatment C: 120 mg pseudoephedrine HCl along with 1200 mg guaifenesin (Sudafed 12 Hour + Mucinex), overnight fast): 24.30 L/h
Pseudoephedrine Clearance ([2]; median, Treatment B: 120 mg pseudoephedrine HCl alone (Sudafed 12 Hour), overnight fast): 22.20 L/h
Pseudoephedrine Clearance ([2]; median, Treatment C: 120 mg pseudoephedrine HCl along with 1200 mg guaifenesin (Sudafed 12 Hour + Mucinex), overnight fast): 23.16 L/h

COc1ccccc1OCC(O)CO (centres unmarked) [Guaifenesin, 3-(2-methoxyphenoxy)-1,2-propanediol]
AUC(0-t) ([3]; Guaifenesin AUC0-t): 8350 ng·h/mL
AUC(0-inf) ([3]; Guaifenesin AUCinf): 8830 ng·h/mL
clearance ([3]; Guaifenesin Clearance): 2270 mL/min
Cmax ([3]; Guaifenesin Cmax): 1920 ng/mL
half-life ([3]; Guaifenesin Half life): 3.03 h
Tmax ([3]; Guaifenesin Tmax): 0.75 h
typical plasma half-life [1]: approximately one
AUC(0-t) ([2]; human, in vivo, 1200 mg, Guaifenesin AUC0-t): 7060 ng·h/mL
AUC(0-inf) ([2]; human, in vivo, 1200 mg, Guaifenesin AUCinf): 7280 ng·h/mL
clearance ([2]; human, in vivo, 1200 mg, Guaifenesin Clearance): 2750 mL/min
Cmax ([2]; human, in vivo, 1200 mg, Guaifenesin Cmax): 1700 ng/mL
half-life ([2]; human, in vivo, 1200 mg, Guaifenesin Half-life): 2.82 h
Tmax ([2]; human, in vivo, 1200 mg, Guaifenesin Tmax): 0.75 h
